One may read the EC50 as the concentration at which the effect is half-maximal.

Molecules are shown by their SMILES. Where two headings read alike, the source gives them in different places. Where only a bound is given, the exact number is not on record here.

The target of this test is soluble guanylate cyclase (sGC) (Homo sapiens (Human), UniProt Q02108+Q02153). Kind of test: sGC-HEK-cGMP assay, new protocol with DETA-NONOate, LC/MS detection (Example 2C). Type of test: cell-based. As to conditions: read-out: Absolute EC50 (uM) - binned.
soluble guanylate cyclase (sGC), sequence (Q02153 whole entry): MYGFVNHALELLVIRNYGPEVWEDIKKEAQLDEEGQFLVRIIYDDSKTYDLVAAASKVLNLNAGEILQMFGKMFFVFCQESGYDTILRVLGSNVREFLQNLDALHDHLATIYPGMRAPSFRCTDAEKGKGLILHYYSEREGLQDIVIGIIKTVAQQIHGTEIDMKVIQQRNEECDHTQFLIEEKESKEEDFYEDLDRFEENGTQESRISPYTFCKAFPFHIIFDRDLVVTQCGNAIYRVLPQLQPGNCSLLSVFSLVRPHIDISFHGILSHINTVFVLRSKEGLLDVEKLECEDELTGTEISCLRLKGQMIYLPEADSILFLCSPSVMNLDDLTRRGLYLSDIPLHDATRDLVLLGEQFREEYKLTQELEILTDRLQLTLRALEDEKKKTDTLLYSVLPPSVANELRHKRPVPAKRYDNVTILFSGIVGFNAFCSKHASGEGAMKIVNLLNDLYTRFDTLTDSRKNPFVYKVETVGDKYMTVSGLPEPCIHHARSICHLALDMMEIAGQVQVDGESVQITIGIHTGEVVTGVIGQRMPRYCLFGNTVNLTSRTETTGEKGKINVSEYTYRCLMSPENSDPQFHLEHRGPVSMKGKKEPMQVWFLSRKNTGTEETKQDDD
soluble guanylate cyclase (sGC), sequence (Q02108 whole entry): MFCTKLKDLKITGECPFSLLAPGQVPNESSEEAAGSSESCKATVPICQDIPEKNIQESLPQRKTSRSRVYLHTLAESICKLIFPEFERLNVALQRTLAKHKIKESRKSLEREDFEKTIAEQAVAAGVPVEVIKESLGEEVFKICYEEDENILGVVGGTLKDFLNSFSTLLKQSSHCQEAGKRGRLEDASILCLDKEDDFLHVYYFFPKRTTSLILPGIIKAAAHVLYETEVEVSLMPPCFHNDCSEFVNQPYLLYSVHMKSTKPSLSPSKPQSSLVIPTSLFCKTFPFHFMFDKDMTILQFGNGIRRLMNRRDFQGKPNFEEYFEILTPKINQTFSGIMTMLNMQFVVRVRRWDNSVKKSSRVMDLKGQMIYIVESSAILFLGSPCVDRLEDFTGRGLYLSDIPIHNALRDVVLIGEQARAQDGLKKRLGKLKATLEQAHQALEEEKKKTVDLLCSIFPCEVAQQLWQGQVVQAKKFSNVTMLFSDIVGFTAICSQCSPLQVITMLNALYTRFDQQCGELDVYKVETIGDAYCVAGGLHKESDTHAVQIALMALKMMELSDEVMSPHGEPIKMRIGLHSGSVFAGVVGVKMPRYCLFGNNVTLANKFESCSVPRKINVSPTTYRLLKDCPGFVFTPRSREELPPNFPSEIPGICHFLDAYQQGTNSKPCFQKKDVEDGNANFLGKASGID

As to `NC(=O)C(O)(CNc1nc(-c2cc(-c3ccon3)n(Cc3cccc(F)c3F)n2)ncc1F)C(F)(F)F` (stereo not shown) [Compound I-522], the half-maximal effective concentration (EC50) was under 0.1 µM.

With `CN(CC1(C(=O)O)CC1)c1nc(-c2cc(-c3ccon3)n(CCC(F)(F)F)n2)ncc1F` [Compound I-523], the 50% effective concentration (EC50) was over 1 µM.

Consider `CC(=O)Nc1ccnc(-c2cc(-c3ccon3)n(Cc3ccccc3F)n2)n1` [Compound I-524], for which the concentration giving a half-maximal response (EC50) is over 1 µM.

With `O=C(Nc1ccnc(-c2cc(-c3ccon3)n(Cc3ccccc3F)n2)n1)C1(OCc2ccccc2)CCOCC1` [Compound I-525], the half-maximal effective concentration (EC50) is over 1 µM.

Consider `CC1(S(C)(=O)=O)CCN(c2nc(-c3cc(-c4ccon4)n(Cc4ccccc4F)n3)ncc2F)C1=O` (stereo not shown) [Compound I-526], for which the EC50 was over 1 µM.

For the compound `CC(CCO)(C(=O)Nc1nc(-c2cc(-c3ccon3)n(Cc3ccccc3F)n2)ncc1F)S(C)(=O)=O` (stereo not shown) [Compound I-527], the EC50 is 0.101 to 1 µM.

Take `COCC(=O)Nc1ccnc(-c2cc(-c3ccon3)n(Cc3ccccc3F)n2)n1` [Compound I-528]: the EC50 was over 1 µM.

Consider `CN(CC(O)(C(F)(F)F)C(F)(F)F)c1nc(-c2cc(-c3ccon3)n(Cc3ccccc3F)n2)ncc1F` [Compound I-529], for which the 50% effective concentration (EC50) is over 1 µM.

For the compound `NC(=O)[C@@](O)(CNc1nc(-c2cc(-c3ccon3)n(Cc3ccccc3F)n2)ncc1F)C(F)(F)F` [Compound I-530], the 50% effective concentration (EC50) was in the range of 0.101 to 1 µM.

For the compound `NC(=O)[C@](O)(CNc1nc(-c2cc(-c3ccon3)n(Cc3ccccc3F)n2)ncc1F)C(F)(F)F` [Compound I-531], the 50% effective concentration (EC50) was under 0.1 µM.

Take `O=C(Nc1ccnc(-c2cc(-c3ccon3)n(Cc3ccccc3F)n2)n1)c1cocn1` [Compound I-532]: the EC50 is over 1 µM.

With `O=C1CCC(=O)N1c1nc(-c2cc(-c3ccon3)n(Cc3ccccc3F)n2)ncc1F` [Compound I-533], the EC50 was in the range of 0.101 to 1 µM.

For the compound `NC(=O)C1CCC(=O)N1c1nc(-c2cc(-c3ccon3)n(Cc3ccccc3F)n2)ncc1F` (stereo not shown) [Compound I-534], the half-maximal effective concentration (EC50) is over 1 µM.

Consider `CC(=O)NCC(=O)Nc1ccnc(-c2cc(-c3ccon3)n(Cc3ccccc3F)n2)n1` [Compound I-535], for which the EC50 is 0.101 to 1 µM.

`CC(C)[C@@H](Nc1nc(-c2cc(-c3ccon3)n(Cc3ccccc3F)n2)ncc1F)C(N)=O` [Compound I-536]: the EC50 was under 0.1 µM.

Consider `CC(C)[C@H](Nc1nc(-c2cc(-c3ccon3)n(Cc3ccccc3F)n2)ncc1F)C(N)=O` [Compound I-537], for which the EC50 is under 0.1 µM.

Turning to `NC(=O)C1(Nc2nc(-c3cc(-c4ccon4)n(Cc4ccccc4F)n3)ncc2F)CC1` [Compound I-538], the EC50 was under 0.1 µM.

As to `O=S(=O)(CCO)Nc1ccnc(-c2cc(-c3ccon3)n(Cc3ccccc3F)n2)n1` [Compound I-539], the EC50 is over 1 µM.

In the case of `NC(=O)C(Nc1nc(-c2cc(-c3ccon3)n(Cc3ccccc3F)n2)ncc1F)C(F)(F)F` (stereo not shown) [Compound I-540], the concentration for a half-maximal effect (EC50) fell in the range of 0.101 to 1 µM.

`COC(=O)Nc1nc(-c2cc(-c3ccon3)n(Cc3ccccc3F)n2)ncc1[N+](=O)[O-]` [Compound I-541]: the concentration giving a half-maximal response (EC50) was over 1 µM.

Consider `COC(=O)Nc1nc(-c2cc(-c3ccon3)n(Cc3ccccc3F)n2)ncc1N` [Compound I-542], for which the EC50 lay within 0.101 to 1 µM.

Turning to `CS(=O)(=O)NCC(=O)Nc1ccnc(-c2cc(-c3ccon3)n(Cc3ccccc3F)n2)n1` [Compound I-543], the EC50 fell in the range of 0.101 to 1 µM.

Consider `CS(=O)(=O)NCCC(Nc1nc(-c2cc(-c3ccon3)n(Cc3ccccc3F)n2)ncc1F)C(F)(F)F` (stereo not shown) [Compound I-544], for which the half-maximal effective concentration (EC50) was under 0.1 µM.

`CS(=O)(=O)C1(CNc2nc(-c3cc(-c4ccon4)n(Cc4ccccc4F)n3)ncc2F)CC1` [Compound I-545]: the concentration for a half-maximal effect (EC50) is under 0.1 µM.

In the case of `CS(=O)(=O)NC(=O)CNc1nc(-c2cc(-c3ccon3)n(Cc3ccccc3F)n2)ncc1F` [Compound I-546], the 50% effective concentration (EC50) is over 1 µM.

Take `COCCC(=O)Nc1ccnc(-c2cc(-c3ccon3)n(Cc3ccccc3F)n2)n1` [Compound I-547]: the half-maximal effective concentration (EC50) fell in the range of 0.101 to 1 µM.

Consider `Cc1ccc(S(=O)(=O)NC(C)C(=O)Nc2ccnc(-c3cc(-c4ccon4)n(Cc4ccccc4F)n3)n2)cc1` (stereo not shown) [Compound I-548], for which the concentration giving a half-maximal response (EC50) is over 1 µM.

On to `O=C(Nc1ccnc(-c2cc(-c3ccon3)n(Cc3ccccc3F)n2)n1)c1cscn1` [Compound I-549], for which the concentration for a half-maximal effect (EC50) is over 1 µM.

With `O=C(Nc1ccnc(-c2cc(-c3ccon3)n(Cc3ccccc3F)n2)n1)c1ccc[nH]1` [Compound I-550], the EC50 was over 1 µM.

As for `N#CC1(C(=O)Nc2ccnc(-c3cc(-c4ccon4)n(Cc4ccccc4F)n3)n2)CC1` [Compound I-551], the EC50 was over 1 µM.

As for `O=C(Nc1ccnc(-c2cc(-c3ccon3)n(Cc3ccccc3F)n2)n1)c1cncs1` [Compound I-552], the EC50 was over 1 µM.

With `O=C(Nc1ccnc(-c2cc(-c3ccon3)n(Cc3ccccc3F)n2)n1)c1cccc(=O)[nH]1` [Compound I-553], the concentration for a half-maximal effect (EC50) was over 1 µM.

Regarding `COc1cc(C(=O)Nc2ccnc(-c3cc(-c4ccon4)n(Cc4ccccc4F)n3)n2)on1` [Compound I-554], the concentration giving a half-maximal response (EC50) was over 1 µM.

For `O=C(Nc1ccnc(-c2cc(-c3ccon3)n(Cc3ccccc3F)n2)n1)c1ccncn1` [Compound I-555], the EC50 was over 1 µM.

Take `O=C(Nc1ccnc(-c2cc(-c3ccon3)n(Cc3ccccc3F)n2)n1)c1cnco1` [Compound I-556]: the EC50 was over 1 µM.

As for `O=C(Nc1ccnc(-c2cc(-c3ccon3)n(Cc3ccccc3F)n2)n1)c1cocn1` [Compound I-557], where the note is “HEK293 cells, 10 μM DETA-NONOate, LC/MS detection, concentration eliciting 50% of high control response (30 μM I-329)”, the EC50 was over 1 µM.

On to `O=C(Nc1ccnc(-c2cc(-c3ccon3)n(Cc3ccccc3F)n2)n1)C1CC1` [Compound I-558], for which the concentration giving a half-maximal response (EC50) fell in the range of 0.101 to 1 µM.

For the compound `CO[C@H](C(=O)Nc1ccnc(-c2cc(-c3ccon3)n(Cc3ccccc3F)n2)n1)c1ccccc1` [Compound I-559], the EC50 lay within 0.101 to 1 µM.

`O=C(Nc1ccnc(-c2cc(-c3ccon3)n(Cc3ccccc3F)n2)n1)c1ccco1` [Compound I-560]: the concentration for a half-maximal effect (EC50) is over 1 µM.

Consider `O=C(Nc1ccnc(-c2cc(-c3ccon3)n(Cc3ccccc3F)n2)n1)c1cccs1` [Compound I-561], for which the EC50 is over 1 µM.

On to `CCOCC(=O)Nc1ccnc(-c2cc(-c3ccon3)n(Cc3ccccc3F)n2)n1` [Compound I-562], for which the EC50 lay within 0.101 to 1 µM.

Turning to `CS(=O)(=O)CC(=O)Nc1ccnc(-c2cc(-c3ccon3)n(Cc3ccccc3F)n2)n1` [Compound I-563], the half-maximal effective concentration (EC50) is over 1 µM.

With `O=C(Nc1ccnc(-c2cc(-c3ccon3)n(Cc3ccccc3F)n2)n1)c1cc(C2CC2)n[nH]1` [Compound I-564], the 50% effective concentration (EC50) was over 1 µM.

Take `CC(=O)OC(C(=O)Nc1ccnc(-c2cc(-c3ccon3)n(Cc3ccccc3F)n2)n1)c1ccccc1` (stereo not shown) [Compound I-565]: the EC50 was 0.101 to 1 µM.

With `O=C(CO)N(CC(F)(F)F)c1nc(-c2cc(-c3ccon3)n(Cc3ccccc3F)n2)ncc1F` [Compound I-566], the EC50 was 0.101 to 1 µM.

Take `Fc1ccccc1Cn1nc(-c2ncc(F)c(NCC3(c4ncc[nH]4)CC3)n2)cc1-c1ccon1` [Compound I-567]: the EC50 is over 1 µM.

With `COC(=O)NCC(Nc1nc(-c2cc(-c3ccon3)n(Cc3ccccc3F)n2)ncc1F)C(F)(F)F` (stereo not shown) [Compound I-568], the EC50 is under 0.1 µM.

For the compound `CC1(C(=O)Nc2ccnc(-c3cc(-c4ccon4)n(Cc4ccccc4F)n3)n2)CC1` [Compound I-569], the concentration for a half-maximal effect (EC50) was over 1 µM.

As to `O=C(Nc1ccnc(-c2cc(-c3ccon3)n(Cc3ccccc3F)n2)n1)C1CCCO1` (stereo not shown) [Compound I-570], the concentration giving a half-maximal response (EC50) lay in the range of 0.101 to 1 µM.

`Cc1cn(CC(=O)Nc2ccnc(-c3cc(-c4ccon4)n(Cc4ccccc4F)n3)n2)c(=O)[nH]c1=O` [Compound I-571]: the EC50 was over 1 µM.

Regarding `COC(C(=O)Nc1ccnc(-c2cc(-c3ccon3)n(Cc3ccccc3F)n2)n1)(c1ccccc1)C(F)(F)F` (stereo not shown) [Compound I-572], the concentration giving a half-maximal response (EC50) was over 1 µM.

Take `CS(=O)(=O)CCC(=O)Nc1ccnc(-c2cc(-c3ccon3)n(Cc3ccccc3F)n2)n1` [Compound I-573]: the concentration for a half-maximal effect (EC50) fell in the range of 0.101 to 1 µM.

In the case of `O=C(Nc1ccnc(-c2cc(-c3ccon3)n(Cc3ccccc3F)n2)n1)C1CCOCC1` [Compound I-574], the half-maximal effective concentration (EC50) fell in the range of 0.101 to 1 µM.

For `O=C1O[C@@H](CO)CN1c1nc(-c2cc(-c3ccon3)n(Cc3ccccc3F)n2)ncc1F` [Compound I-575], the EC50 is under 0.1 µM.

Take `C[C@H](O)C(=O)Nc1ccnc(-c2cc(-c3ccon3)n(Cc3ccccc3F)n2)n1` [Compound I-576]: the EC50 lay within 0.101 to 1 µM.

On to `O=C(Nc1ccnc(-c2cc(-c3ccon3)n(Cc3ccccc3F)n2)n1)c1ccccc1O` [Compound I-577], for which the half-maximal effective concentration (EC50) was in the range of 0.101 to 1 µM.

On to `Fc1ccccc1Cn1nc(-c2ncc(F)c(NC3CCOC3)n2)cc1-c1ccon1` (stereo not shown) [Compound I-578], for which the EC50 is under 0.1 µM.

For `N#CCC(=O)Nc1ccnc(-c2cc(-c3ccon3)n(Cc3ccccc3F)n2)n1` [Compound I-579], the half-maximal effective concentration (EC50) is over 1 µM.

As to `CC(C)(C(=O)Nc1ccnc(-c2cc(-c3ccon3)n(Cc3ccccc3F)n2)n1)S(C)(=O)=O` [Compound I-580], the EC50 fell in the range of 0.101 to 1 µM.

For `NC(=O)CCNc1nc(-c2cc(-c3ccon3)n(Cc3ccccc3F)n2)ncc1F` [Compound I-581], the EC50 is under 0.1 µM.

Take `CC(C)(C(=O)Nc1nc(-c2cc(-c3ccon3)n(Cc3ccccc3F)n2)ncc1F)S(C)(=O)=O` [Compound I-582]: the EC50 is over 1 µM.

Take `O=C(Nc1ccccc1)Nc1ccnc(-c2cc(-c3ccon3)n(Cc3ccccc3F)n2)n1` [Compound I-583]: the EC50 is over 1 µM.

Take `NC(=O)NCC(=O)Nc1ccnc(-c2cc(-c3ccon3)n(Cc3ccccc3F)n2)n1` [Compound I-584]: the EC50 was over 1 µM.

As to `CC(C)NC(=O)NCC(=O)Nc1ccnc(-c2cc(-c3ccon3)n(Cc3ccccc3F)n2)n1` [Compound I-585], the concentration for a half-maximal effect (EC50) fell in the range of 0.101 to 1 µM.

For `CN(C)S(=O)(=O)NCC(=O)Nc1ccnc(-c2cc(-c3ccon3)n(Cc3ccccc3F)n2)n1` [Compound I-586], the EC50 fell in the range of 0.101 to 1 µM.

Take `CC(C(=O)Nc1ccnc(-c2cc(-c3ccon3)n(Cc3ccccc3F)n2)n1)S(C)(=O)=O` (stereo not shown) [Compound I-587]: the EC50 lay in the range of 0.101 to 1 µM.

On to `CS(=O)(=O)CCC(Nc1nc(-c2cc(-c3ccon3)n(Cc3ccccc3F)n2)ncc1F)C(F)(F)F` (stereo not shown) [Compound I-588], for which the concentration for a half-maximal effect (EC50) fell in the range of 0.101 to 1 µM.

The values are drawn from patent US10183021B2, “sGC stimulators” (Ironwood Pharmaceuticals, Inc., priority 2013, dated 2019).
